In PMC12691742, “Anti-Cancer Outcome of Glucocorticoid Receptor Transrepression by Synephrine Derivatives in Hematological Malignancies” (International Journal of Molecular Sciences, 2025):

What was measured:
[1] = test system: FKBP51, GILZ, DDIT4 mRNA expression in K562 and Granta cells; assay: Q-PCR of GR transactivation marker genes; format: cell-based; settings: 4 h (FKBP51, GILZ) or 24 h (DDIT4); Dex 10 µM, 10S-E2 0.1 µM; vs control
Excerpt: Q-PCR results were confirmed by Western blot analysis of the level of GR phosphorylated by Ser211, known as a crucial protein modification for GR TA realization because of its binding to short cysteine-rich fragments of the coactivator CREB-binding protein [41].
Figure 3 Effects of synephrine derivatives on GR transactivation in Granta lymphoma and K562 leukemia cells. (A) Q-PCR analysis of FKBP51, GILZ, and DDIT4 mRNA expression in K562 and Granta cells. […] The Q-PCR results were normalized to the expression of the housekeeping gene RPL27 and are presented as fold changes compared to the control. The mean ± SD was calculated for three individual samples/condition (n = 3). Statistically significant differences compared to the control: * p < 0.05, ** p < 0.01. (B) The levels of the nuclear fraction of phospho-GR (Ser211) were determined using Western blot analysis (n = 3; characteristic images are presented in the figure). Histone H3 was used as a loading control.
Total RNA isolation from cell cultures and murine bones, reverse transcription, and Q-PCR were performed as described in [36]. Primers were designed using NCBI Primer-BLAST https://www.ncbi.nlm.nih.gov/tools/primer-blast/, accessed on 25 August 2025 (Supplementary Table S1). Results were normalized to the expression of the housekeeping RPL27 и Rpl27 genes. The experiments were performed in triplicate.

[2] = test system: NF-kB activity in K562 cells; assay: NF-kB.Luc reporter assay in K562 cells; format: cell-based; settings: 5 h, 10S-E2 1 µM
Experimental: (§1) We analyzed GR TR function using an NF-kB.Luc reporter assay with the irritating inflammatory agent phorbol 13-acetate 12-myristate (TPA) as an inducer of NF-kB signaling and positive control.
Figure 4 Effects of synephrine derivatives on GR transrepression in Granta lymphoma and K562 leukemia cells. (A) K562 and Granta cells stably infected with the lentiviruses bearing the NF-kB luciferase reporter. Cells were incubated for 5 h with the solvent (control), TPA (5 ng/mL), 4S-C2 (10 µM), 8S-E3 (10 µM), 10S-E2 (1 µM), or 13S-G2 (1 µM). Luciferase activity was determined as described in the Materials and Methods section. (B) IL1-α and IL6 mRNA expression in K562 and Granta cells. […] The mean ± SD was calculated for three individual samples/condition (n = 3). […]
Lentiviral stocks were generated using the lentiviral expression vector NF-kB. […] The infection efficiency exceeded 90% (tracked by GFP fluorescence).
(§2) Cells (10^4 cells/well in a 24-well plate), stably expressing Firefly Luciferase under the NF-kB promoter, were treated for 5 h with TPA (12-O-tetradecanoylphorbol-13-acetate, Boston, MA, USA, 10 ng/mL), 4S-C2 (10 µM), 8S-E3 (10 µM), 10S-E2 (1 µM), 13S-G2 (1 µM), or the vehicle. Luciferase activity was measured as described using a commercial Luciferase Assay (“Promega”, Madison, WI, USA) and Luminometer TD 20/20 (“Turner Design Instruments”, San Jose, CA, USA). […]

[3] = test system: NF-kB activity in Granta cells; assay: NF-kB.Luc reporter assay in Granta cells; format: cell-based; settings: 5 h, 10S-E2 1 µM
Experimental: as §1
Figure 4 Effects of synephrine derivatives on GR transrepression in Granta lymphoma and K562 leukemia cells. (A) K562 and Granta cells stably infected with the lentiviruses bearing the NF-kB luciferase reporter. Cells were incubated for 5 h with the solvent (control), TPA (5 ng/mL), 4S-C2 (10 µM), 8S-E3 (10 µM), 10S-E2 (1 µM), or 13S-G2 (1 µM). Luciferase activity was determined as described in the Materials and Methods section. (B) IL1-α and IL6 mRNA expression in K562 and Granta cells. Q-PCR results were normalized to the expression of the housekeeping gene RPL27 and are presented as the fold change compared to the control. The mean ± SD was calculated for three individual samples/condition (n = 3). Statistically significant differences compared to the control: * p < 0.05, ** p < 0.01.
Lentiviral stocks were generated using the lentiviral expression vector NF-kB. Luc was encoded with Firefly Luciferase reporters with the NF-kB-responsive promoter of minimal CMV promoter as a control (“System Bioscience”, Moutain View, CA, USA), along with packing plasmids GAG, REV, and VSVg. HEK-293T cells were transfected with the abovementioned plasmids using TurboFect reagent (“Thermo Scientific”, Waltham, MA, USA) according to the manufacturer’s protocol. […] The infection efficiency exceeded 90% (tracked by GFP fluorescence).
as §2

P388 murine lymphoma = assay: Transplantable P388 murine lymphoma model; format: in vivo, mice; settings: P388 model; Dex 1 mg/kg, 10S-E2 10 mg/kg i.p. 3 times per week
Experimental: Figure 5 Pro-apoptotic and anti-cancer effects of synephrine derivatives in vitro and in vivo. (A) Effect of 4S-C2, 8S-E3, 10S-E2, and 13S-G2 on cell cycle progression in K562 and Granta cells after 24 h of incubation. The cells were fixed with ethanol, stained with propidium iodide, and analyzed using flow cytometry. Statistically significant difference compared to control: *—p < 0.05, **—p < 0.01 (n = 3). (B) In vivo anti-cancer activity was evaluated using the transplantable P388 murine lymphoma model. […] Tumor nodule size was measured twice a week using digital calipers. Statistically significant differences compared to the control: * p < 0.05, ** p < 0.01.
The protocol for the experiment was approved by the local N.N. Blokhin National Medical Research Center Ethics Committee and corresponded to the guidelines for the welfare and use of animals in cancer research adopted by The United Kingdom Coordinating Committee on Cancer Prevention Research. P388 cells were injected i.p. into 5-week-old female DBA/2 mice (“Stolbovaya Farm”, Stolbovaya, Russia). After 15 days, the cells were collected from the peritoneum, washed, and resuspended in PBS. For the experiments, 0.1 mL containing 2 million cells obtained from the ascites was inoculated s.c. in 5-week-old female BDF1 mice (“Stolbovaya Farm”, Stolbovaya, Russia). […] Body weight was recorded twice a week for toxicity determination. Tumor size was measured three times per week using digital calipers.

[4] = test system: leukemia and lymphoma cells (Granta, K562); parameters: method as in PMID 39858397; settings: cited from earlier work

CCCCCCNCC(O)c1ccc(OCc2ccccc2)cc1 (stereo not drawn) [10S-E2, 1-[4-(benzyloxy)phenyl]-2-(hexylamino)ethanol]
expression of TA marker genes FKBP51, GILZ, DDIT4 [1]: did not increase the expression
inhibition of luciferase activity (NF-kB) [2]: 60%
effect on NF-kB activity ([3]; 4S-C2 10 µM): not statistically significant
inhibition of luciferase activity (NF-kB) [3]: 15%
animal body weight change vs control (P388 murine lymphoma): no statisticall y si gnificant differences
IC50 ([4]; leukemia and lymphoma cells, read-out: cell viability IC50): 13 to 26 µM
concentrations of cytotoxic effects ([4]; mantle cell lymphoma Granta and chronic myeloleukemia K562 cells): 10 to 20 µM
